We go through 3 compounds from patent US7662822B2, “Substituted azaquinazolines having an antiviral action” (Bayer Schering Pharma Aktiengesellschaft, priority 2004, dated 2010).

A short description of data set [1]: Anti-HCMV cytopathogenicity test: cytostatic effect on NHDF cells. It counts as cell-based. To be noted: human, human prepuce fibroblasts (NHDF cells), 6 days incubation, visual assessment. As to the method: (§1) Anti-HCMV (Anti-Human Cytomegalovirus) Cytopathogenicity Tests
(§2) The test compounds are employed as 50 millimolar (mM) solutions in dimethyl sulphoxide (DMSO). Ganciclovir®, Foscarnet® and Cidofovir® are used as reference compounds. After addition of in each case 2 μl of the 50, 5, 0.5 and 0.05 mM DMSO stock solutions to 98 μl portions of cell culture medium in row 2 A-H for duplicate determinations, 1:2 dilutions are carried out with 50 μl portions of medium up to row 11 of the 96-well plate. The wells in rows 1 and 12 each contain 50 μl of medium. 150 μl of a suspension of 1×10^4 cells (human prepuce fibroblasts [NHDF]) are then pipetted into each of the wells (row 1=cell control) and, in rows 2-12, a mixture of HCMV-infected and uninfected NHDF cells (M.O.I.=0.001−0.002), i.e. 1-2 infected cells per 1000 uninfected cells. Row 12 (without substance) serves as virus control. The final test concentrations are 250-0.0005 μM. The plates are incubated at 37° C./5% CO2 for 6 days, i.e. until all the cells are infected in the virus controls (100% cytopathogenic effect [CPE]). The wells are then fixed and stained by adding a mixture of formalin and Giemsa's dye (30 minutes), washed with double-distilled water and dried in a drying oven at 50° C. The plates are then assessed visually using an overhead microscope (plaque multiplier from Technomara).
(§3) The following data can be acquired from the test plates:
CC50 (NHDF)=substance concentration in μM at which no visible cytostatic effects on the cells are evident by comparison with the untreated cell control;

In data set [2] the test system is HCMV (human cytomegalovirus). Nature of the data set: Anti-HCMV cytopathogenicity test: inhibition of CPE. It counts as cell-based. The following applies: for EC50: read-out: HCMV EC50. As to the method:
as §1, §2, §3
EC50 (HCMV)=substance concentration in μM which inhibits the CPE (cytopathic effect) by 50% compared with the untreated virus control;
SI (selectivity index)=CC50 (NHDF)/EC50 (HCMV).
On the technique in general: Damage to the host cells serves as the signal in cytopathic effect assays.

Setting [3] is: Human betaherpesvirus 5, 144 h, HCMV-infected NHDF cells, M.O.I. 0.001-0.002, 6 days, inhibition of CPE by 50%.

Counter-ions that a name gives are not always drawn. Like-named read-outs stand apart in the source and are kept apart here.

Regarding `COc1ccc(C)cc1N1C(N2CCN(c3ccc(F)cc3)CC2)=Nc2ccncc2C1CC(=O)O` (stereo not drawn) [Example 8, [2-[4-(4-Fluorophenyl)piperazin-1-yl]-3-(2-methoxy-5-methylphenyl)-3,4-dihydropyrido[4,3-d]-pyrimidin-4-yl] acetic acid], the CC50 at 6 days in data set [1] was 250 µM. Besides, the “SI HCMV (selectivity index = CC50 (NHDF)/EC50 (HCMV))” value in data set [2] is on record as 1786. Besides, the EC50 in data set [2] (setting [3]) came out at 0.14 µM.

In turn, `COc1ccc(C(F)(F)F)cc1N1C(N2CCN(c3ccc(F)cc3)CC2)=Nc2ccncc2C1CC(=O)O` (stereo not drawn) [Example 9, {2-[4-(4-Fluorophenyl)piperazin-1-yl]-3-[2-methoxy-5-(trifluoromethyl)phenyl]-3,4-dihydro-pyrido[4,3-d]pyrimidin-4-yl}acetic acid] returned a CC50 at 6 days in data set [1] of 94 µM. In data set [2], the “SI HCMV (selectivity index = CC50 (NHDF)/EC50 (HCMV))” value is reported as 1880. In addition, in data set [2] (setting [3]), the EC50 was 0.05 µM.

For `COc1cccc(N2CCN(C3=Nc4cnccc4C(CC(=O)O)N3c3cccc(C(F)(F)F)c3)CC2)c1` (stereo not drawn) [Example 4, {2-[4-(3-Methoxyphenyl)piperazin-1-yl]-3-[3-(trifluoromethyl)phenyl]-3,4-dihydropyrido[3,4-d]-pyrimidin-4-yl}acetic acid hydrochloride], the CC50 at 6 days in data set [1] stood at 94 µM. The “SI HCMV (selectivity index = CC50 (NHDF)/EC50 (HCMV))” value in data set [2] is 470. Besides, the 50% effective concentration (EC50) in data set [2] (Human betaherpesvirus 5, NHDF, 144 h) is 0.2 µM.

As usually defined, the CC50 is the concentration giving 50% cytotoxicity. A low value points to harm at low concentration. A word on the EC50: it is the concentration that produces a half-maximal response.
